Source: patent US10722441B2, “Noreugenin glycoside derivatives” (Universitaet Hamburg, priority 2016, dated 2020)

Tested on: reconstituted human epidermis with melanocytes of phototype II
Assay: Tanning properties in reconstituted human epidermis with melanocytes; semiquantification of melanin content by Fontana-Masson staining and image analysis
Type: cell-based
Details: for Change of melanin content / pigmentation, in words: IBMX 100 μM vs untreated controls
Method: The epidermis with melanocytes of phototype II is reconstituted in an air/liquid interface system (directly at the air-liquid interface) in a culture medium from day 0 to day 4 for a complete differentiation. The culture is then continued from day 4 to day 14 in this same medium but without bovine pituitary extract (BPE). The test preparations were administered in the […] from day 4 to day 14. The medium and the test preparations are each added on day 4, day 7 and day 11. DMSO and THF are tested in parallel and IBMX (100 μM) is used as the positive reference.
After embedding in paraffin, a Fontana-Masson staining of the tissue sections is performed. The microscope slides are covered with a special medium and examined using a light microscope of the Leica DM2000 type with a digital camera. After staining, images are recorded and a quantification is performed by image analysis (on the basis of 12 images). For quantification of the melanin content in each image, the Leica QWin3 software is used. Two measurements are carried out. The first measurement gives the total intensity of the coloration, i.e., a lighter or darker melanin is reflected. The second measurement relates to the marked image area, i.e., the area of the epidermis containing the melanin. In these measurements all cell layers except the stratum corneum are included.
The procedure used was the same as that carried out in example 1 and 2. After determining the cytotoxic concentrations, substance (Ia) is tested at 8 μM, substance (Ib) at 40 μM (solvent: 0.1% THF) and substance (IIa) at 20 μM (solvent: 0.1% DMSO).
After determining the cytotoxic concentrations of these substances, substance (Ib) is tested at 40 μM in DMSO (0.1%), substance (IIa) is tested at 20 μM in DMSO (0.1%), the mixture of (Ib)/(IIa) is tested at 40/20 μM in DMSO (0.1% and rhamnose is tested at 40 μM in THF (0.2%).

[1] = second experiment, Ib 40 μM and IIa 20 μM vs DMSO, mixture 40/20 μM, rhamnose 40 μM
[2] = first experiment, Ia 8 μM, Ib 40 μM vs THF, IIa 20 μM vs DMSO

SMILES | Change of melanin content / pigmentation, in words [1] | Change of melanin content / pigmentation, in words [2] | other results
C[C@H](O)[C@H](O)[C@@H](O)[C@@H](O)C=O [Rhamnose, rhamnose, reference compound] | tendency to increase melanin synthesis is only faintly pronounced |  | Quantification after Fontana-Masson staining, relative to the untreated controls (second experiment, 40 μM in THF (0.2%)): 109%
Cc1cc(=O)c2c(O)cc(O[C@@H]3O[C@@H](C)[C@H](O)[C@@H](O)[C@H]3O)cc2o1 [Substance (Ib), 7-[(6-deoxy-α-L-mannopyranosyl)oxy]-5-hydroxy-2-methyl-4H-1-benzopyran-4-one] | significant increase | significant increase | Quantification after Fontana-Masson staining, relative to the untreated controls (first experiment, 40 μM, solvent 0.1% THF, day 4 to day 14): 174% (p < 0.05); Quantification after Fontana-Masson staining, relative to the untreated controls (second experiment, 40 μM in DMSO (0.1%)): 167% (p < 0.01)
CC(C)Cn1c(=O)n(C)c(=O)c2[nH]cnc21 [IBMX, reference compound] | significant increase | significant increase | Quantification after Fontana-Masson staining, relative to the untreated controls (first experiment, IBMX 100 μM, positive reference, day 4 to day 14): 152% (p < 0.05); Quantification after Fontana-Masson staining, relative to the untreated controls (second experiment, IBMX 100 μM, positive reference): 150% (p < 0.01)
Cc1cc(=O)c2c(O)cc(O[C@@H]3O[C@H](CO)[C@@H](O)[C@H](O)[C@H]3O)cc2o1 [Substance (Ia), 7-(β-D-glucopyranosyloxy)-5-hydroxy-2-methyl-4H-1-benzopyran-4-one] |  | unambiguous tendency to increase pigmentation | Quantification after Fontana-Masson staining, relative to the untreated controls (first experiment, 8 μM, day 4 to day 14): 125%
Cc1cc(=O)c2c(O[C@@H]3O[C@@H](C)[C@H](O)[C@@H](O)[C@H]3O)cc(O)cc2o1 [Substance (IIa), 5-[(6-deoxy-α-L-mannopyranosyl)oxy]-7-hydroxy-2-methyl-4H-1-benzopyran-4-one] | significant increase | significant increase | Quantification after Fontana-Masson staining, relative to the untreated controls (first experiment, 20 μM, solvent 0.1% DMSO, day 4 to day 14): 143% (p < 0.05); Quantification after Fontana-Masson staining, relative to the untreated controls (second experiment, 20 μM in DMSO (0.1%)): 147% (p < 0.05)
